Calls of active or inactive are those of the source. For most assays here, no stated cut-off is given here; in the data, actives have a measured EC50 and inactives only a lower limit.
Tests used:
BJ [1] = assay: cytotoxicity toward BJ-TERT-LT-ST fibroblasts, dose response, cell-based, RAS-independent, luminescence (AID 1935); assay type: functional; conditions: Homo sapiens;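 further: BJ fibroblasts immortalized with TERT plus LT and ST oncogenes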
[2] = cytotoxicity toward DRD oncogenic fibroblasts, dose response, cell-based, non-viral oncogenic, luminescence (AID 1934); assay type: functional; conditions: Homo sapiens
Beta-galactosidase = Beta-galactosidase (Escherichia coli, UniProt Q8VNN2); assay: PubChem AID 485352; assay type: functional
[3] = target: ATP-dependent molecular chaperone HSP82 (Candida albicans (strain WO-1) (Yeast), UniProt C4YTQ8); assay: loss of DOC-induced GRE-beta-galactosidase reporter signal, dose response, Hsp90 inhibitor project, S. cerevisiae, luminescence (AID 2400); assay type: functional, cell-based;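 further: beta-galactosidase luminescence from glucocorticoid response element reporter as proxy for Hsp90 function; inhibitor potency where signal loss means Hsp90 inhibition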
ATP-dependent molecular chaperone HSP82, sequence (C4YTQ8 whole entry): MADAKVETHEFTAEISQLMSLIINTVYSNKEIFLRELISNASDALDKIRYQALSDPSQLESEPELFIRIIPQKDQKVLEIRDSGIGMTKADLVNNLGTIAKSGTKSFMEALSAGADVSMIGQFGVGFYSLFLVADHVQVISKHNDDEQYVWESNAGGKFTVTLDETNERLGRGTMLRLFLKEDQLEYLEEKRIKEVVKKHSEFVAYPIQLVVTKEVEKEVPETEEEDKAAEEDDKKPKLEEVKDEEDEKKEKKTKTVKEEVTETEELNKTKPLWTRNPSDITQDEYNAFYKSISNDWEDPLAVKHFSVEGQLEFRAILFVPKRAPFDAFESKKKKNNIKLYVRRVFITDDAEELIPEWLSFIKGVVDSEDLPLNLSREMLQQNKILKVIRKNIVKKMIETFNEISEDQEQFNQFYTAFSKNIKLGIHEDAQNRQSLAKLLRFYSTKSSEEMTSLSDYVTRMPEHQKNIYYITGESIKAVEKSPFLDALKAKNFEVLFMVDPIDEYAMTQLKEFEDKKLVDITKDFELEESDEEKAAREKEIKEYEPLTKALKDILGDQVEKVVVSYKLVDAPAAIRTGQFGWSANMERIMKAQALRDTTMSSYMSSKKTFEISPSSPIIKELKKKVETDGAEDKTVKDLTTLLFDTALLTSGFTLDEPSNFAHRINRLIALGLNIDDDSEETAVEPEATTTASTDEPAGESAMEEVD

[4] = target: T1, Apoptotic protease-activating factor 1 (Homo sapiens, UniProt O14727); assay type: functional
T1 sequence (O14727 whole entry): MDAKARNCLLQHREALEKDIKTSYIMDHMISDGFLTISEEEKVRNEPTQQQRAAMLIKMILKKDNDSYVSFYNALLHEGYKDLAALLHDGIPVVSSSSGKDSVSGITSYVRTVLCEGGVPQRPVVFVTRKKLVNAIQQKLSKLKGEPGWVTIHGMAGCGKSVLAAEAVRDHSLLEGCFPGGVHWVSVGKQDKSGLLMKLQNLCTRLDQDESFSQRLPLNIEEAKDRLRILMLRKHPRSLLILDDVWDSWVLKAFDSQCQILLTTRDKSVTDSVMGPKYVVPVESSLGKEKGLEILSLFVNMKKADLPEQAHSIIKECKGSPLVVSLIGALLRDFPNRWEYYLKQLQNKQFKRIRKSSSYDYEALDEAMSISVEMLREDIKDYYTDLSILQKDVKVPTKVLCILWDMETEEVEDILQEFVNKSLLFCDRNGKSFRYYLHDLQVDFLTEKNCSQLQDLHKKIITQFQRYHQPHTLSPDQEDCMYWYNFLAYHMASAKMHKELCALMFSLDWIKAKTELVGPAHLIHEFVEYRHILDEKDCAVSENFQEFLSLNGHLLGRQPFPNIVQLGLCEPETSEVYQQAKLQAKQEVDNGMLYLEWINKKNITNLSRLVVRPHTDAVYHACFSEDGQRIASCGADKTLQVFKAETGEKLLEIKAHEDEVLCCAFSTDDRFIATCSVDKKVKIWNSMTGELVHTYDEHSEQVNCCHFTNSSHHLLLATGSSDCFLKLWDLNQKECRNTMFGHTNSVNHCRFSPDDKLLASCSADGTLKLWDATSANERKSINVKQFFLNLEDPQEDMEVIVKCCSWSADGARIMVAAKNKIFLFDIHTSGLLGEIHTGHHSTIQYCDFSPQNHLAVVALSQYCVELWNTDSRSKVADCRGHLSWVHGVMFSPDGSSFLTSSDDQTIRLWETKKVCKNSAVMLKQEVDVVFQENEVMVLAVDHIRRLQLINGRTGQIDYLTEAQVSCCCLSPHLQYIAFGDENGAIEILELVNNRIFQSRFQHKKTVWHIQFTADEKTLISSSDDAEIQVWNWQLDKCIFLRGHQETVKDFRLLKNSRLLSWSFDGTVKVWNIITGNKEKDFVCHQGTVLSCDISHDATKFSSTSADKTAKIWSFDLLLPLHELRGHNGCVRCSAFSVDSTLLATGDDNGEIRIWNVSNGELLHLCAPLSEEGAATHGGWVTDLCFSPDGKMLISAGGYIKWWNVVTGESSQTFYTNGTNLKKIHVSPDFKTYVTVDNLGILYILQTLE

Streptococcus = assay: Group A Streptococcus viability loss, dose response, counter-screen for streptokinase expression inhibitor project, luminescence, BacTiterGlo (AID 1915); assay type: functional, organism-based;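 further: potency for reduction of bacterial viability or growth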
[5] = target: Beta-adrenergic receptor kinase 1 (Homo sapiens, UniProt P25098); assay: aptamer displacement from bead-bound GRK2 – biochemical, cherry pick 1, bead flow cytometry, dose response (AID 504500)
BJ [6] = assay: cytotoxicity toward BJ-TERT fibroblasts, dose response, cell-based, RAS-independent, luminescence (AID 1933); assay type: functional; conditions: Homo sapiens
[7] = tested on: Streptococcus sp. 'group A'; assay: growth inhibition of control SK(-) GAS strain, dose response, counter-screen for streptokinase expression inhibitor project, luminescence, kanamycin, BacTiterGlo, confirmation (AID 1900); assay type: functional, organism-based
BJ [8] = assay: cytotoxicity toward Ras-transformed BJeLR fibroblasts, dose response, cell-based, alamar blue fluorescence, cherrypicked samples (AID 2631); assay type: functional; conditions: Homo sapiens;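 further: confirmatory dose-response assay in RAS-dependent BJ fibroblasts engineered with TERT, LT and ST, with cytotoxicity read by fluorescence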
BJ [9] = assay: cells; assay type: functional, cell-based; conditions: Homo sapiens
[10] = target: Serine/threonine-protein phosphatase (Candida dubliniensis (strain CD36 / CBS 7987 / NCPF 3949 / NRRLY-17841) (Yeast), UniProt B9W6M3); assay: calcineurin pathway inhibitors in yeast reporter, dose response, S. cerevisiae, CDRE-lacZ, luminescence, secondary (AID 2388); assay type: functional, cell-based;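 further: yeast reporter cells carrying a calcineurin-responsive lacZ construct stimulated with calcium chloride; luminescent beta-galactosidase reporter signal in whole cells rather than isolated phosphatase activity; potency for inhibition where a drop in reporter signal means calcineurin blockade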
Serine/threonine-protein phosphatase, sequence (B9W6M3 whole entry): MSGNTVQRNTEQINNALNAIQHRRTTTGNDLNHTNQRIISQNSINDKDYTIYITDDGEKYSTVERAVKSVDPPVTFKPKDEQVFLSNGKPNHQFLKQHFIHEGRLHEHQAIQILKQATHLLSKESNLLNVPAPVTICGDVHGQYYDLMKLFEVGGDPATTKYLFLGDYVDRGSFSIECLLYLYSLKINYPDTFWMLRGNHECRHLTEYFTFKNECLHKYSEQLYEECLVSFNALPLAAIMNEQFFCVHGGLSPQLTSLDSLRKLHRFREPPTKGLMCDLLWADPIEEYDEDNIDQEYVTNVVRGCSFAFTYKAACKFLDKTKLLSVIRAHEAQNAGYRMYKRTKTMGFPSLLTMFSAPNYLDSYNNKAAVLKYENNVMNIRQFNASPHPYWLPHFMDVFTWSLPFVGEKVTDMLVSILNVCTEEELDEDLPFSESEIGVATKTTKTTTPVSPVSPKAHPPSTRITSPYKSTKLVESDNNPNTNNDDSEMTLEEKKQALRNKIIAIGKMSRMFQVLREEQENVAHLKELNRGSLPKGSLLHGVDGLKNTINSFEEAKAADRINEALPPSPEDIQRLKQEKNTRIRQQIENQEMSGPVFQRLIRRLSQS

[11] = cytotoxicity in HEK-293T cells, dose response, cytotoxicity control for TCR NF-kB inhibitor project, luminescence, T-cell screen hits (AID 489026); assay type: functional, cell-based;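 further: cells exposed to compound about 14 hours before the viability readout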
[12] = C. albicans growth with fluconazole, confirmation, fluorescence, retest (AID 2467); assay type: functional, cell-based
[13] = target: Type-1 angiotensin II receptor (Homo sapiens, UniProt P30556); assay: AT1 receptor antagonists, dose response, selectivity assay for APJ receptor antagonist project, cell-based, uHTS hits (AID 463214); assay type: functional;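 further: antagonist potency against angiotensin II stimulated AT1 response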
[14] = target: Intestinal-type alkaline phosphatase (Homo sapiens, UniProt P09923); assay: activation of human intestinal alkaline phosphatase – biochemical, dose response (AID 488873); assay type: functional
Intestinal-type alkaline phosphatase (Homo sapiens, UniProt P09923), sequence (P09923 whole entry): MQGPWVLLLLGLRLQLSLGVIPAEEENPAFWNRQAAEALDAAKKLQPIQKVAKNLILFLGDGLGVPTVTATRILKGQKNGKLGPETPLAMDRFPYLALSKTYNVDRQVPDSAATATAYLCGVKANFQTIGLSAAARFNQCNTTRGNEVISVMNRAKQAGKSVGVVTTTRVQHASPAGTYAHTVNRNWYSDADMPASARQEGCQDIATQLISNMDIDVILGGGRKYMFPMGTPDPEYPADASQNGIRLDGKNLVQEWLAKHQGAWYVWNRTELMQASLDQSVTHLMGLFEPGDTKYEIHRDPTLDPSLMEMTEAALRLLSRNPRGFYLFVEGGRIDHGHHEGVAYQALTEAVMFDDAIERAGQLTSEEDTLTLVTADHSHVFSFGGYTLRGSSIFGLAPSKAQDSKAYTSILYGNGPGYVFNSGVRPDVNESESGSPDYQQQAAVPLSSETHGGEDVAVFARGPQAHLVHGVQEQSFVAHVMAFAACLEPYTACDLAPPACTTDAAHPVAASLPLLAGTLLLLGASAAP

[15] = target: T2, Alkaline phosphatase, tissue-nonspecific isozyme (Homo sapiens, UniProt P05186); assay: TNAP enzyme activators, dose response, selectivity assay for mouse IAP activator project, biochemical, TNAP isozyme, mouse IAP uHTS hits (AID 488880); assay type: functional
T2 sequence (P05186 whole entry): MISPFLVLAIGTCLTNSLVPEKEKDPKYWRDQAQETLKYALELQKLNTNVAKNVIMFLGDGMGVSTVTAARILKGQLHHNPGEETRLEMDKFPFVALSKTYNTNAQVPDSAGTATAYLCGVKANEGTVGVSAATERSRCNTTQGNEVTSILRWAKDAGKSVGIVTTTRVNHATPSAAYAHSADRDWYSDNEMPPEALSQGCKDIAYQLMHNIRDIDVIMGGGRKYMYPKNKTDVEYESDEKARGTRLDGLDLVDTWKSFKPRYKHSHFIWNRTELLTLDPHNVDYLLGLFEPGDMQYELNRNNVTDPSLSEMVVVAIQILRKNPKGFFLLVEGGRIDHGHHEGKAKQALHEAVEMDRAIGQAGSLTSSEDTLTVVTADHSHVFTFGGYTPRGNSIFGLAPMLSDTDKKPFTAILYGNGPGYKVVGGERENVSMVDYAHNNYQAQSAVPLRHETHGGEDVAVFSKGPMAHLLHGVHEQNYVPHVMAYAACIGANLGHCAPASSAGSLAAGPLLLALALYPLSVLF

[16] = target: Intestinal-type alkaline phosphatase (Mus musculus, UniProt P24822); assay: mouse intestinal alkaline phosphatase activators, dose response, biochemical, luminescence, uHTS hits (AID 488783); assay type: functional
Intestinal-type alkaline phosphatase (Mus musculus, UniProt P24822), sequence (P24822 whole entry): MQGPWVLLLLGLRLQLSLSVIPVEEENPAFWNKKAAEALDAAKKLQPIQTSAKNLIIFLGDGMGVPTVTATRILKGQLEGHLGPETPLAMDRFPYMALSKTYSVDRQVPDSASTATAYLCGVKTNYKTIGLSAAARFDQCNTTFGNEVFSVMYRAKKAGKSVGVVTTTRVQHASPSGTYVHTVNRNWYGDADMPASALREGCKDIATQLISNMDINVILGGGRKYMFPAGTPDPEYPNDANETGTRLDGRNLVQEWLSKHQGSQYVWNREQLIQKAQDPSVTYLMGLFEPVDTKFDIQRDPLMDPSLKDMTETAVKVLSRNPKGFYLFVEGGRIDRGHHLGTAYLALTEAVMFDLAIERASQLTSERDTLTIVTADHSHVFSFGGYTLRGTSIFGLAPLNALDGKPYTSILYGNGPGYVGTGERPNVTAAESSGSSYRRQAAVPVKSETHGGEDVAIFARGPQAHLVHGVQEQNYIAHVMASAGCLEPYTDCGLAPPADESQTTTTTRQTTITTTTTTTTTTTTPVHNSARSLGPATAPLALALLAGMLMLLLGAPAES

INS1 = assay: beta cell apoptosis inhibitors, cytokine rescue, dose response, luminescence, retest (AID 449756); assay type: functional, cell-based; conditions: Rattus norvegicus;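 further: cell death triggered by IL-1 beta plus TNF-alpha plus IFN-gamma mixture; protective hits raise ATP signal compared with cytokine alone wells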
Streptokinase A = target: T3, Streptokinase A (Streptococcus pyogenes serotype M1, UniProt P10520); assay: S. pyogenes streptokinase expression inhibitors, potency, dose response, plasminogen activation absorbance, OD405 (AID 1914); assay type: functional, Streptococcus pyogenes M1 GAS;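 further: secreted streptokinase activity via plasminogen activation per viability signal from cell pellet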
T3 sequence (P10520 whole entry): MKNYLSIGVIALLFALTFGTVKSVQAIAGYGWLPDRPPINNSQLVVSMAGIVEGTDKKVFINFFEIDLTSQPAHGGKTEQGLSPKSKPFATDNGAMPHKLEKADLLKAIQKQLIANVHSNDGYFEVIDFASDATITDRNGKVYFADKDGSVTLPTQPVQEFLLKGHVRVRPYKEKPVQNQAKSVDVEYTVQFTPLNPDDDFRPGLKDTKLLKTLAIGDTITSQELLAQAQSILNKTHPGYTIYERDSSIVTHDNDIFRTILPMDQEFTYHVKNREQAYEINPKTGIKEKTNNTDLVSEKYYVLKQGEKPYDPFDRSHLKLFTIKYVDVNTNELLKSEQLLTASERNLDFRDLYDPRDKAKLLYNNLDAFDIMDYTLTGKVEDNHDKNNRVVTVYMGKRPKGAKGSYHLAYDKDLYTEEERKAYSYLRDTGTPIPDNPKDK

[17] = NIH-3T3 fibroblast cytotoxicity, dose response, cytotoxicity control, cell-based, fluorescence, Alamar Blue, secondary assay (AID 2327); assay type: functional;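 further: NIH-3T3 mouse fibroblasts cultured with fluconazole at 8 µg/mL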
[18] = inhibitors of firefly luciferase expression or activity, dose response, H4 neuroglioma cells, luminescence (AID 1990); assay type: functional, cell-based
[19] = inhibitors of SNCA 5'UTR-driven reporter translation, confirmation, H4 neuroglioma cells, luminescence (AID 1988); assay type: functional, cell-based
[20] = Luminescence Cell-Based Dose Response HTS to Identify Inhibitors of 5'UTR Stem-Loop Driven Prion Protein mRNA Translation in H4 Neuroglioblastoma Cells. [Related pubchem assays: 1827 (Project Summary), 1813 (Primary HTS)]; assay type: functional
HEK293 = assay: inhibitors of LMP1-driven NF-kB reporter, dose response, cell-based, HEK293, luciferase, cherry-pick (AID 588343); assay type: functional; conditions: Homo sapiens
[21] = target: Sphingosine 1-phosphate receptor 2 (Homo sapiens, UniProt O95136); assay: Late-stage fluorescence-based dose-response cell-based counterscreen assay to identify agonists of the Sphingosine 1-Phosphate Receptor 3 (S1P3): Sphingosine 1-Phosphate Receptor 2 (S1P2) agonist assay.; assay type: functional
[22] = target: T4, Sphingosine 1-phosphate receptor 4 (Homo sapiens, UniProt O95977); assay: Late-stage fluorescence-based dose-response cell-based counterscreen assay to identify agonists of the Sphingosine 1-Phosphate Receptor 3 (S1P3): Sphingosine 1-Phosphate Receptor 4 (S1P4) agonist assay.; assay type: functional
T4 sequence (O95977 whole entry): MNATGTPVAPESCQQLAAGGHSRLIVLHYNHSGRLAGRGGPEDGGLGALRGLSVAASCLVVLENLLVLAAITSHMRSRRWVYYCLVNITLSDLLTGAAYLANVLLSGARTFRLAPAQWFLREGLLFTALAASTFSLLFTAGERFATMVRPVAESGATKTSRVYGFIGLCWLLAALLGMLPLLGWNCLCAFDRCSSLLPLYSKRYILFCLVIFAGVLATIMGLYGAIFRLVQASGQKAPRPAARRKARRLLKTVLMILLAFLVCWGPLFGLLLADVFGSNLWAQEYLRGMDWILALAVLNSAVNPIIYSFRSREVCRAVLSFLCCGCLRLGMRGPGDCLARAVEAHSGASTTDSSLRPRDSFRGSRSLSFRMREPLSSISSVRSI

Prothrombin = Prothrombin (Bos taurus, UniProt P00735); assay: thrombin inhibition, dose response, biochemical, fluorescence polarization, uHTS hits (AID 602369); assay type: functional
[23] = target: 26S proteasome non-ATPase regulatory subunit 14 (Homo sapiens, UniProt O00487); assay: inhibition of proteasome subunit RPN11 – biochemical, fluorescence polarization, uHTS hits, confirmation (AID 602368); assay type: functional
26S proteasome non-ATPase regulatory subunit 14, sequence (O00487 whole entry): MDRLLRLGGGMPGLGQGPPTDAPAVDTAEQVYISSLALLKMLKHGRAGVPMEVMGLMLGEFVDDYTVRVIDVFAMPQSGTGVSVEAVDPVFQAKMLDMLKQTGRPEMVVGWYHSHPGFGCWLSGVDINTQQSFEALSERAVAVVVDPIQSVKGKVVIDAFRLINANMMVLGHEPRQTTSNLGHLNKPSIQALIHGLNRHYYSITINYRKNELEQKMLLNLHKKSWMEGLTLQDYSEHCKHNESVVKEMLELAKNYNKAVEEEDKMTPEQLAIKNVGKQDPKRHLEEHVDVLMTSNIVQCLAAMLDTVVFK

[24] = target: 72 kDa type IV collagenase (Homo sapiens, UniProt P08253); assay: Dose Response validation of uHTS RPN11 inhibitor hits using a MMP-2 Fluorescence assay.; assay type: functional
72 kDa type IV collagenase, sequence (P08253 whole entry): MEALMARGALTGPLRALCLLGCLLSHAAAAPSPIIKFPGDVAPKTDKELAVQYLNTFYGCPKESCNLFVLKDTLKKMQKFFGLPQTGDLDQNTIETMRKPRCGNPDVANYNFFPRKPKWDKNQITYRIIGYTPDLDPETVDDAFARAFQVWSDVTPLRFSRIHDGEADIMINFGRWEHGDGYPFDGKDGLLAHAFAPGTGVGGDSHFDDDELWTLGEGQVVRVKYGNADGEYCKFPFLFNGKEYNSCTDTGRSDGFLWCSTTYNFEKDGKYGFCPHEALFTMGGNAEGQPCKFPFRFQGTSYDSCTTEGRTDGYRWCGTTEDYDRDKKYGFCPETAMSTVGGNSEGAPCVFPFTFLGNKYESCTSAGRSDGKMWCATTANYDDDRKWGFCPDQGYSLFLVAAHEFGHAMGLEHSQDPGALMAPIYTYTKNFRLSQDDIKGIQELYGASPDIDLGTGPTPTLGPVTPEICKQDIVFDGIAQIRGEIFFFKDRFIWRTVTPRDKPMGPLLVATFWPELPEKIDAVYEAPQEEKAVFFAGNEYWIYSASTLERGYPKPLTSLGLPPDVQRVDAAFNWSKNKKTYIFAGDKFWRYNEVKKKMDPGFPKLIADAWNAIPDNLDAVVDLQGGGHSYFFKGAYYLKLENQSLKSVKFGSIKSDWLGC

[25] = target: T5, V-type proton ATPase subunit c' (Saccharomyces cerevisiae S288c, UniProt P32842); assay: Dose Response of Small Molecules that Regulate V-ATPase Proton Transport in Yeast using pHLuorin, Powder Set1.; assay type: functional; conditions: read-out: EC50_MICROM
T5 sequence (P32842 whole entry): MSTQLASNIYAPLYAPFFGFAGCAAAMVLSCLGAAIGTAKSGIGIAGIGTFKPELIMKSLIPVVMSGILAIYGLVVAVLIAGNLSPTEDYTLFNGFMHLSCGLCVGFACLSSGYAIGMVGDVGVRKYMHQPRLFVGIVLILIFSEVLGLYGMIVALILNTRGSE

[26] = target: T5, V-type proton ATPase subunit c'; assay: Dose Response with BCECF Assay for V-ATPase inhibitors that increase vacuolar pH, Powder Set 1.; assay type: functional; conditions: read-out: EC50_MICROM
Aurora kinase B = Aurora kinase B (Homo sapiens, UniProt Q96GD4); assay type: functional
Aurora kinase B, sequence (Q96GD4 whole entry): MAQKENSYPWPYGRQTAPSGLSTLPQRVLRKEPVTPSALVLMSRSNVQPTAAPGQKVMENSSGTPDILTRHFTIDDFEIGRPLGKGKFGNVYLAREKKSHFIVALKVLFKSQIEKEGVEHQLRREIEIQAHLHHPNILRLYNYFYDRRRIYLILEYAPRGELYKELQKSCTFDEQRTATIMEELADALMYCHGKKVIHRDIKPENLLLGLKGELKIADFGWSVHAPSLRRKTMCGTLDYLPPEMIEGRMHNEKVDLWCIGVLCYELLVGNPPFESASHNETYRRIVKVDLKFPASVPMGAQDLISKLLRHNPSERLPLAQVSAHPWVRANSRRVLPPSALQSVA

[27] = target: Serine/threonine-protein kinase BRSK1 (Homo sapiens, UniProt Q8TDC3); assay type: functional;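 further: measured within a kinome-wide kinase panel, with the target listed as KIAA1811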
Serine/threonine-protein kinase BRSK1, sequence (Q8TDC3 whole entry): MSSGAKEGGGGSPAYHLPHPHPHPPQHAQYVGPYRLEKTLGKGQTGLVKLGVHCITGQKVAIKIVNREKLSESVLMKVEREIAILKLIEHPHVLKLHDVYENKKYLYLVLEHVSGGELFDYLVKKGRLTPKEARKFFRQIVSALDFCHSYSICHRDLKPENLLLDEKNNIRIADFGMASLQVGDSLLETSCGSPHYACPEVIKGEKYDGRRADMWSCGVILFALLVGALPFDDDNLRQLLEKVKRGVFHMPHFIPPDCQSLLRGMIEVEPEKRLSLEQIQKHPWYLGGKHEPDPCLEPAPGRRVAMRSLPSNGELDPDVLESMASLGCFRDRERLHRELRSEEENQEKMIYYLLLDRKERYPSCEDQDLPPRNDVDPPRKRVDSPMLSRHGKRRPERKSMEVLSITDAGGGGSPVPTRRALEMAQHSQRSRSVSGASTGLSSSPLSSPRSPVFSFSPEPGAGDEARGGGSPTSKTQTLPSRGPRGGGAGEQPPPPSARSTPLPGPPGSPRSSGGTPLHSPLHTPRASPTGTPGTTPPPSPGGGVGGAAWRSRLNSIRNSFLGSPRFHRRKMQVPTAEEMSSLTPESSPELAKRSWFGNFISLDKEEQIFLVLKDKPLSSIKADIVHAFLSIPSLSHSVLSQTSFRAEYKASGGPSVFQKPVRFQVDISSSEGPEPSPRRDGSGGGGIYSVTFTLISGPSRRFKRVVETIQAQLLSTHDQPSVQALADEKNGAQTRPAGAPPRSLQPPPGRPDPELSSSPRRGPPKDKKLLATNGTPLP

Compound: CCN1/C(=C/c2ccc3cc(C)ccc3[n+]2CC)Sc2ccc3sccc3c21
- EC50 (BJ [1]): 1.23 µM (inconclusive)
- EC50 [2]: 1.45 µM (inconclusive)
- EC50 (Beta-galactosidase): > 40 µM (inactive)
- EC50 [3]: 32 µM (active)
- IC50 [4]: > 100 µM (inactive)
- EC50 (Streptococcus): 4.44 µM (active)
- EC50 [5]: 0.12 µM (active)
- EC50 (BJ [6]): 1.17 µM (inconclusive)
- EC50 [7]: 3.29 µM (active)
- EC50 (BJ [8]): 0.37 µM (inconclusive)
- EC50 (BJ [9]): 0.966 µM (inconclusive)
- EC50 [10]: > 180 µM (inactive)
- IC50 [11]: > 80 µM (inactive)
- EC50 [12]: 0.046 µM (active)
- IC50 [13]: > 40 µM (not active)
- EC50 [14]: 61.8 µM (active)
- EC50 [15]: 60.6 µM (active)
- EC50 [16]: 35.5 µM (active)
- AC50 (INS1): < 0.195 µM (active)
- EC50 (Streptokinase A): > 150 µM (not active)
- EC50 [17]: 21.1 µM (active)

Compound: COc1ccc(Nc2oc(COc3ccccc3OC)nc2C#N)cc1
- EC50 [18]: 7.69 µM (active)
- EC50 [19]: 6.17 µM (active)
- EC50 [20]: 11 µM (active)
- AC50 (HEK293): 6.17 µM (active)

Compound: O=C(c1cc(C2CC2)on1)N(C1CCCCC1)C1CCCC1
- EC50 [21]: > 50 µM (inactive)
- EC50 [22]: > 50 µM (inactive)

Compound: COc1cc(NC(=O)CCn2c(=S)[nH]c3ccccc3c2=O)cc(OC)c1OC
- IC50 (Prothrombin): > 100 µM (inactive)
- IC50 [23]: 74.1 µM (active)
- IC50 [24]: 4.5 µM (active)

Compound: O=C(c1ccc([N+](=O)[O-])o1)N1CCN(c2ccc(C(F)(F)F)cn2)CC1
- EC50 [25]: 9.82 µM (active)
- EC50 [26]: 1.59 µM (active)

Compound: CCc1cccc2c1n(CC)c(=N)n2CC(=O)c1ccc(Br)cc1
- Ki (Aurora kinase B): 2.51 µM (active)
- Ki [27]: 2 µM (active)
